Assay results from patent US11478474B2, “2-(3′-(hydroxymethyl)-1-methyl-5-((5-(2-methyl-4-(oxetan-3-yl)piperazin-1-yl)pyridin-2-yl)amino)-6-oxo-1,6-dihydro-[3,4′-bipyridin]-2′-yl)-7,7-dimethyl-7,8-dihydro-2H-cyclopenta[4,5]pyrrolo[1,2-a]pyrazin-1(6H)-one as a BTK inhibitor” (HUTCHISON MEDIPHARMA LIMITED, priority 2020, dated 2022).

What was measured:
[1] = In vivo efficacy of the inhibitory effect on BTK target (anti-IgD antibody-induced B cell activation in mice whole blood after in vivo administration); settings: female, C57BL/6, mouse; 20 mg/kg single oral gavage, 16 h, mice plasma; read-out: Drug concentration in plasma
Procedure: (§1) Objects: B cells in mice whole blood were induced and activated by the anti-IgD antibody, and the inhibitory effect of the compound of the present invention on B cell activation in vivo was studied, so as to determine the inhibitory effect of the compound of the present invention on the BTK target in vivo.
(§2) Methods: C57BL/6 mice (female, 18-20 g, purchased from Shanghai Lingchang Biotechnology Co., Ltd.) were grouped according to Table 2.
(§3) The animals of each group were administered, then were placed in CO2 for anesthesia at designated time points, blood samples were taken from […] via retro-orbital bleeding, and heparin was used for anticoagulation; 90 μL of whole blood was taken from mice of each group, and added to a 96 well culture plate, and anti-mouse IgD antibody (BIO-RAD, Cat #MCA4693) was added to each well to a final concentration of 0.01 μg/μL (respectively for the each drug-treated group and anti-IgD antibody-inducted vehicle group); in addition, 90 μL of whole blood of mice in the vehicle group was taken and added to the 96-well culture plate, and PBS (phosphate buffer, GIBCO, Cat #C20012500BT) was added to each well to a final concentration of 0.01 μg/μL (namely, the vehicle control group); Each group was mixed well and incubated in a 37° C./5% CO2 incubator for 4 hours. In addition, the blood of mice in the drug-treated group was centrifuged to separate plasma for blood concentration analysis.
(§4) Calculation for B Cell Activation Ratio: B cell activation ratio=percentage of CD69+CD19+double positive B cells/percentage of CD19+single positive B cells
(§5) Calculation for Inhibition Ratio: Inhibition ratio=(percentage of B cell activation ratio in anti-IgD antibody-induced vehicle group-percentage of B cell activation ratio in drug-treated group)/(percentage of B cell activation ratio in anti-IgD antibody-induced vehicle group-percentage of B cell activation ratio in vehicle control group)×100%
(§6) All data are represented by mean±standard error. For the comparison between each drug-treated group and the anti-IgD antibody-induced vehicle group, p value was calculated by Graphpad Prism using one-way ANOVA analysis of variance and Dunnett's test, and for the comparison between each drug-treated group, p value was calculated by using unpaired t test.

[2] = tested on: B cell activation in mouse whole blood induced by anti-IgD antibodies; experiment: as above
Procedure: as §1, §2, §3, §4, §5, §6

concentration at 16 h [1]: 76.2 ± 41.7 ng/mL
SMILES: Cn1cc(-c2ccnc(-n3ccn4c5c(cc4c3=O)CC(C)(C)C5)c2CO)cc(Nc2ccc(N3CCN4CCOCC4C3)cn2)c1=O (racemic) [Compound 232]
Inhibition ratio (%) ([2]; 20 mg/kg single oral gavage, 16 h): 89%
B cell activation ratio (the proportion of activated B cells to total B cells) ([2]; 20 mg/kg single oral gavage, 16 h, mean ± standard error): 8.4 ± 1.9^***&
inhibition ratio on B cell activation ([2]; 20 mg/kg, 16 hours after administration, mice whole blood, anti-IgD antibody): 89%
